Test results as given in US12421257B2, “Compositions and methods for inhibiting group II intron RNA” (YALE UNIVERSITY, priority 2018, dated 2025).
Converted amounts (≈) assume the structure as drawn. Where two headings read alike, the source gives them in different places.

Assays:
[1] = system: C. parapsilosis; assay: MIC determination against C. parapsilosis; type: cell-based, Candida parapsilosis; settings: Lodderomyces parapsilosis; RPMI-1640, 35° C. or 37° C., turbidity after 24 and 48 hours
Procedure, shortened: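 Broth microdilution in RPMI-1640 with C. parapsilosis at 0.5×10^3 to 2.5×10^3 CFU/mL; test compounds 0.25-128 μg/ml final, 1% DMSO. Plates incubated at 35° C or 37° C, turbidity read visually at 24 and 48 h. MIC = lowest concentration without visible growth; triplicates.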

[2] = system: HEK-293T cells; assay: Cytotoxicity in HEK-293T cells (Cell Titer Glo); type: cell-based, human; settings: for IC50: Homo sapiens
[3] = system: COX1 aI5γ group II intron; assay: Group II intron splicing in S. cerevisiae by RT-qPCR; type: cell-based, Saccharomyces cerevisiae; settings: qRT-PCR, four hours with compound
Experimental: A culture of S. cerevisiae was grown overnight with shaking in YPGE at 30° C. The saturated culture was then diluted and grown to mid-log phase in YPGE. Equal volumes of DMSO or compounds dissolved in DMSO were added to individual cultures (final concentrations of NED-2020: 64 μg/mL, APY-101: 32 μg/mL, APY-081: 32 μg/mL, APY-014: 64 μg/mL, Amphotericin B: 8 μg/mL), and incubated for four hours. Cells were harvested by centrifugation, washed with 500 μL ice-cold MilliQ water, centrifuged again, and snap-frozen in liquid nitrogen. Total RNA was isolated using E.Z.N.A. Yeast Purification Kit (Omega Bio-tek) according to manufacturer's procedures. The RNA was eluted in 50 μL of RNase/DNase-free water (ThermoFisher), followed by DNAse treatment with RQ1 DNase (Promega), for 1 hour at 37° C. Then it was mixed with 6 μl of 3M NaOAc and precipitated with 75% EtOH at −20° C. overnight. Then the RNA was reverse-transcribed with SuperScript III (ThermoFisher) following manufacturer's recommendations with 200 ng Random Hexamer Primers (ThermoFisher) and RNasin (ThermoFisher) in a 20 μl reaction. After reverse transcription, RNA was degraded by addition of 2N NaOH (2 μl) and incubation at 95° C. for 5 minutes. After cooling on ice for 5 minutes, 2 μl of 1M HCl and 2 μl of 3M NaOAc were added to the reaction mixture, and cDNA was precipitated with 75% EtOH at −20° C. for 30 minutes and resuspended in RNase/DNase-free water. The cDNA levels were quantified with real-time PCR using LightCycler 480 SYBR Green I (Roche) and a CFX384 Real-Time PCR Detection System (Bio-Rad) in triplicate. Relative levels of indicated RNA species from different conditions were normalized according to the ΔΔCT method via the following equation (Livak and Schmittgen, 2001, Methods, 25:402-408): ΔΔCT=[(CTCOX1total or unspliced−CTACT1or PGK1)test compound−(CTCOX1total or unspliced−CTACT1or PGK1)DMSO)].
The average and SEM of 2^-ΔΔCT is reported for each sample from three independent replicates. The following primer sets were used to amplify indicated targets: ACT1: […] (SEQ ID NO:1), […] (SEQ ID NO:2); PGK1: […] […]

[4] = system: S. cerevisiae wild-type (NP40-36a) and mtDNA intronless (XPM46) strains; assay: S. cerevisiae growth assay, wild-type vs mtDNA intronless strain; type: cell-based, Saccharomyces cerevisiae; settings: YPGE medium, 64 or 128 μg/mL
Experimental: Cultures of S. cerevisiae (Wild-type: NP40-36a, mtDNA intronless: XPM46 (Perez-Martinez et al., 2003, EMBO J, 22:5951-5961) were grown overnight with shaking to mid-log phase in YPGE at 30° C. Equal numbers of cells were harvested and serially-diluted 1:5. Cells were then plated on YPD or YPGE media containing DMSO or Intronistat A dissolved in DMSO (final concentration: 64 or 128 μg/mL). Plates were grown for one day (YPD plates), two days (YPGE DMSO plate), or 18 days (YPGE 18 (Intronistat A) plate) at 30° C. Experiment was replicated twice to ensure reproducibility of growth phenotype.

[5] = 72 hours growth in the presence of compounds, read-out: IC50 HEK-293T viability after 72-hour incubation
[6] = cytotoxicity, 24 hours with compound, read-out: IC50 HEK-293

Compound | MIC [1] [µg/mL] | IC50 [2, 5] [µg/mL] | IC50 [2, 6] [µg/mL] | Splicing of COX1 aI5γ group II intron in S. cerevisiae in vivo (in words) [3] | Toxicity in human cells (in words) ([2]; 24 hours incubation) | Growth of intronless vs wild-type strain in presence of compound (in words) [4]
O=C(c1cc(O)c(O)c(O)c1)c1cc2cc(-c3ccc(CO)cc3)ccc2o1 [APY-084, 5-({5-[4-(Hydroxymethyl)phenyl]-1-benzofuran-2-yl}carbonyl)benzene-1,2,3-triol] | 2 to 4 (≈ 5.31 to 10.6 µM) | 1 ± 0.04 | 1.1 ± 0.1 |  |  | 
Cc1ccncc1-c1ccc2oc(C(=O)c3cc(O)c(O)c(O)c3)cc2c1 [APY-081, 5-{[5-(4-Methylpyridin-3-yl)-1-benzofuran-2-yl]carbonyl}benzene-1,2,3-triol] | 4 to 8 (≈ 11.1 to 22.1 µM) | 0.79 ± 0.09 | > 128 | inhibit splicing |  | 
CC(=O)c1ccc(-c2ccc3oc(C(=O)c4cc(O)c(O)c(O)c4)cc3c2)cc1 [APY-101, 1-(4-{2-[(3,4,5-Trihydroxyphenyl)carbonyl]-1-benzofuran-5-yl}phenyl)ethan-1-one] | 2 to 4 (≈ 5.15 to 10.3 µM) | 1.3 ± 0.1 | > 128 | inhibit splicing | did not show toxicity | intronless strain is much more resistant
O=C1/C(=C/c2cc(O)cc(O)c2)Oc2cc(O)cc(O)c21 [APY-014, (Z)-2-(3,5-Dihydroxybenzylidene)-4,6-dihydroxybenzofuran-3(2H)-one] |  |  | > 64 | inactive |  | 
Br.CCN(CC)Cc1ccc(-c2ccc3oc(C(=O)c4cc(O)c(O)c(O)c4)cc3c2)cc1 [APY-090, 5-[(5-{4-[(Diethylamino)methyl]phenyl}-1-benzofuran-2-yl)carbonyl]benzene-1,2,3-triol hydrobromide] | 4 to 8 |  | 1.7 ± 0.6 |  |  | 
CCCCNS(=O)(=O)c1ccc(-c2ccc(-c3nc(-c4cc(O)c(O)c(O)c4)cs3)cc2)cc1 [APY-093, N-Butyl-4-{4-[4-(3,4,5-trihydroxyphenyl)-1,3-thiazol-2-yl]phenyl}benzene-1-sulfonamide] | 32 to 64 (≈ 64.4 to 129 µM) |  | 7.2 ± 1.5 |  |  | 
